According to publication PMC10166914, “GTN057, a komaroviquinone derivative, induced myeloma cells' death in vivo and inhibited c‐MET tyrosine kinase” (Cancer Medicine, 2023):
pIC50: −log10 of the molar value.

How the values were obtained:
[1] = test system: EGF stimulated ERK1/2, STAT3, AKT1 phosphorylation; experiment: Western blot, EGF-stimulated signaling in A549 cells; assay type: cell-based, human; settings: EGF stimulation
Protocol: (§1) MM cells (4 × 10^5 cells/mL) were incubated with 0–20 μM GTN057 for 12 h. The cells were then co‐cultured with 0–50 ng/mL of hepatocyte growth factor (HGF) (PeproTech, London) or 0–20 ng/mL of fibroblast growth factor (FGF)‐2 (PeproTech) with 1 unit/mL of heparin in RPMI containing 4% dialyzed FCS (Gibco) for the KMS11 and KMS34 cells and 10% dialyzed FCS for the KMS21 cells for 15 min at RT (room temperature). A549 cells were co‐cultured with 0–50 ng/mL of epidermal growth factor (EGF) (PeproTech) in Eagle's MEM containing 4% dialyzed FCS for 15 min at RT. […]
(§2) The protein concentrations were measured using a BCA Protein Assay Kit (Thermo Fisher Scientific). […]
(§3) Antibodies against phospho‐STAT3 (Tyr705), phospho‐Akt (Ser473), p44/42 MAPK (Erk 1/2), phosphor‐p44/42 MAPK (Thr202/Tyr 204), and phospho‐c‐Met (Tyr1234/1235) (all from Cell Signaling Technology, Danvers, MA) or STAT3, Akt, c‐Met, and β‐actin (all from Santa Cruz Biotechnology, Santa Cruz, CA) or phospho‐c‐Met (Tyr1230/1234/1235) (Biosource, Camarillo, CA for KMS34 cells in Figure 3A) were each used at 1:1000 dilution. […] The Western blotting signals were detected by enhanced ECL chemiluminescence (Amersham). The signal intensity of each band was quantified densitometrically with ImageJ software (ver. 1.48, U.S. National Institutes of Health).

ERK1/2 = experiment: Western blot, dose-dependent inhibition of ERK1/2 phosphorylation in KMS34 cells; assay type: cell-based; settings: Homo sapiens, KMS-34, Western blot densitometry, read-out: 50% inhibition of the phosphorylation of ERK1/2
Protocol: as §1, §2, §3

[2] = test system: bone marrow cells from mice; set-up: method as in PMID 28882484; settings: cited from earlier work
KMS11 cells [3] = experiment: In vivo tumor growth assay, KMS11 xenograft; set-up: species or system ICR/SCID mice; settings: 100 mg/kg i.p., after 2 weeks of treatment, KMS11-xenografted SCID mice
Protocol: For the in vivo tumor growth assay, we injected 3 × 10^7 cells of KMS11 cells subcutaneously into the flank of male 5‐week‐old ICR/SCID mice. When the tumors reached 100 mm^3, we injected (i.p.) 20 or 100 mg/kg of GTN057 solubilized in 1% Tween® 80 + 10% DMSO in saline twice every 3 days for 2 weeks. We measured the tumor volumes every day for 2 weeks as the length × width^2 × 0.52.[21]

KMS11 cells [4] = experiment: Growth inhibition, trypan blue exclusion assay; assay type: cell-based; settings: Homo sapiens, KMS-11, KMS11, 48 h
Protocol: (§4) For the trypan blue exclusion assay, 2 × 10^5 cells/mL of each MM cell line were incubated with various concentrations of GTN057 (0–20 μM). The cells were cultured in triplicate plates, and viable cells were evaluated by a trypan blue exclusion assay (Trypan Blue Stain 0.4%, Gibco) using an automatic cell counter (TC20™, Bio‐Rad).

KMS34 cells = experiment: Growth inhibition, trypan blue exclusion assay; assay type: cell-based; settings: Homo sapiens, KMS-34, KMS34, 48 h
Protocol: as §4

KMS21 cells = experiment: Growth inhibition, trypan blue exclusion assay; assay type: cell-based; settings: Homo sapiens, KMS21, 48 h
Protocol: as §4

KMM1 cells = experiment: Growth inhibition, trypan blue exclusion assay; assay type: cell-based; settings: Homo sapiens, KMM-1, KMM1, 48 h
Protocol: as §4

KMS27 cells = experiment: Growth inhibition, trypan blue exclusion assay; assay type: cell-based; settings: Homo sapiens, KMS-27, KMS27, 48 h
Protocol: as §4

MUM24 cells = experiment: Growth inhibition, trypan blue exclusion assay; assay type: cell-based; settings: Homo sapiens, MUM24, 48 h
Protocol: as §4

KMS26 cells = experiment: Growth inhibition, trypan blue exclusion assay; assay type: cell-based; settings: Homo sapiens, KMS-26, KMS26, 48 h
Protocol: as §4

KMS28 cells = experiment: Growth inhibition, trypan blue exclusion assay; assay type: cell-based; settings: Homo sapiens, KMS28, 48 h
Protocol: as §4

[5] = test system: CD138-positive cells obtained from MM patients' bone marrow; experiment: Growth inhibition of patient cells, MTT assay; assay type: cell-based; settings: Homo sapiens, 48 h
Description: Mononuclear cells were obtained from the bone marrow aspirates of MM patients treated at Tokyo Saiseikai Central Hospital, by centrifugation with Lymphoprep™ (Axis‐Shield). The mononuclear cells were then labeled with CD138 MicroBeads from Miltenyi Biotec (Bergisch Gladbach). The labeled CD138‐positive cells were magnetically purified using MACS Columns (Miltenyi Biotec).
For the 3‐[…] (MTT) assay (Roche Diagnostics), 6 × 10^4 cells/mL of CD138‐positive bone marrow cells were cultured in 96‐well plates in triplicate with various concentrations of GTN057 for 48 h. The cell viability was examined by MTT dye absorbance in accord with the manufacturer's manual. We obtained the IC50 values by drawing approximate straight lines in semilogarithmic growth curves, using Microsoft Excel.

COc1c(OC(C)=O)c2c(c(O)c1C(C)C)C(=O)CC1C(C)(C)CCC[C@]1(O)C2 (stereo partly drawn) [GTN057]
ERK1/2, STAT3, AKT1 phosphorylation levels [1]: not altered | pIC50 (ERK1/2): 4.67 | Colony formation of bone marrow cells ([2]; bone marrow cells from mice): did not inhibit the colony formation | Hematological toxicity in vitro ([2]; colony assay): negligible hematological toxicity | Average tumor volume (KMS11 cells [3]): 0.71 ± 0.17 cm^3 | Average tumor weight (KMS11 cells [3]): 0.98 ± 0.16 g | pIC50 (KMS11 cells [4]): 4.95 | pIC50 (KMS34 cells): 4.70 | pIC50 (KMS21 cells): 5.00 | pIC50 (KMM1 cells): 4.69 | pIC50 (KMS27 cells): 5.10 | pIC50 (MUM24 cells): 5.28 | pIC50 (KMS26 cells): 5.00 | pIC50 (KMS28 cells): 4.62 | pIC50 ([5]; Patient 1 CD138+ cells): 4.92 | pIC50 ([5]; Patient 2 CD138+ cells): 4.79 | pIC50 ([5]; Patient 3 CD138+ cells): 4.58 | pIC50 ([5]; Patient 4 CD138+ cells): 4.73
